From patent US20080280983A1, “METHODS OF TREATING RETT SYNDROME” (CeNeRx BioPharma, priority 2007, published 2008)
Where two headings read alike, the source gives them in different places.

Legend:
[1] = system: bicucullin-induced convulsions; test: Bicucullin-induced convulsions in rats; format: in vivo, rat; conditions: for protection against convulsions: percent compared with controls; for animals showing convulsions: 1 hour before bicuculline 4.5 mg/kg i.p., FIG. 4
Protocol: The method described by Curtis D. R. et al. (Brain Res. 34:301; 1971), herein incorporated by reference in its entirety, was used in modified form.
One hour later, bicuculline was administered by intraperitoneal route at a dose of 4.5 mg/kg dissolved in 10 ml/kg NSS. The number of animals manifesting any type of convulsion was then counted. The protection conferred by the treatments was then calculated as percent compared with the controls. The statistical significance of the differences was analyzed using the Yates chi-square test.

[2] = system: pentetrazol-induced convulsions; test: Pentetrazol-induced convulsions in rats; format: in vivo, rat; conditions: for animals manifesting convulsions: 30 minutes before pentetrazol 80 mg/kg i.p.
Protocol: The method proposed by Goodman L. S. et al. (J. Pharmacol. Test Ther. 108:168; 1958) was used. […] After 30 minutes, pentylene tetrazol (80 mg/kg i.p.) was administered. The number of animals from each group who manifested at least one convulsion during the 30 minutes after injection was counted. The differences between treatments were statistically analyzed using the chi-square/Fisher exact test.

[3] = system: electroshock-induced convulsions; test: Electroshock-induced convulsions in rats; format: in vivo, rat; conditions: 30 minutes before shock
Protocol: Male rats were studied using the method described by E. Chojnacka-Wojcik (Pol. J. Pharmacol. Pharm., 35:511-15, 1983), herein incorporated by reference in its entirety.
At 30 minutes after dosing, the animals were given a non-lethal electric shock (50 Hz, 50 mA, impulse train duration 0.2 s via corneal electrodes wetted in normal saline). […] The frequency of tonic and clonic convulsions among the treatment groups was analyzed using the Yates chi-square test .

[4] = system: strychnine-induced mortality; conditions: for type of antagonism of strychnine from slope of dose/mortality line: 100 mg/Kg i.p. pretreatment
Protocol: Strychnine causes muscular convulsions and eventual death through asphyxia or sheer exhaustion in mammals.
Strychnine was administered i.p., dissolved in normal saline at a constant volume of 10 ml/kg. […] The number of deaths was recorded, starting 15 minutes after administration. Using data on deaths at each dose, the LD50, the 95% confidence intervals, and the line slope S were calculated.

[5] = system: CRH; test: CRH concentration in hypothalamus and cerebral cortex, foot-shock stress; format: in vivo, rat
Source text: As mentioned above, stress is known to be associated with release of CRH from the hypothalamus and activation of the HPA axis. This is paralleled by changes in the CRH content of different brain regions and alterations in the expression of messenger RNA (mRNA) for CRH.

[6] = system: GABA receptors; conditions: cited from earlier work
[7] = system: CRH mRNA; conditions: sustained treatment, hypothalamus and cerebral cortex of rats; cited from earlier work
[8] = system: mouse; conditions: cited from earlier work
[9] = system: rats; test: Water maze test; format: in vivo, rat; conditions: 100 mg/Kg
Protocol: The water maze test is designed to test the effect of drugs on learning and performance in a task that is performed under a stressful condition. After several trials under control conditions, rats learn to exit the water maze with greater speed and with fewer errors. Performance in this test can be improved by drugs that either reduce stress and/or enhance learning (e.g. muscarinic agonists). On the contrary, drugs that impair learning (e.g. scopolamine) can worsen performance. […] This indicates improved learning and retention.

[10] = system: aged mice; test: Taut thread test; format: in vivo, mouse
Protocol: In this test, aged mice are required to traverse a thread stretched between two points. Performance is measured by the time taken to reach the end and the number of resting positions adopted during the test.

[11] = system: mouse; conditions: intravenous route; cited from earlier work
[12] = system: rats; test: Open field behavior test; format: in vivo, rat
Source text: The open-field behavior test relies on the observation that rats exposed to a novel open environment display behaviors (exploratory ambulation, rearing, and dropping fecal boluses) that are thought to be naturally defensive and anticipatory of potential threats in the environment. Pharmacologic interventions that attenuate these behaviors may have utility in modifying pathologic fear or stress responses in a clinical context.

[13] = system: rat; conditions: in vivo, ip; cited from earlier work
[14] = system: isoniazide-induced convulsions; test: Isoniazide-induced convulsions in rats; format: in vivo, rat; conditions: 1 hour prior to isoniazide 100 mg/kg i.p.
Protocol: The method of Reilly R. H. et al. (JAMA 152(14):1317; 1953), herein incorporated by reference in its entirety, was used in modified form. […] Both the ED50 and ED84 were calculated. In the second part of the test, the ED84 was administered at different times (0.5-1.0-1.5-2.0-3.0 hours) prior to isoniazide administration for the purpose of determining the duration of action and the curve of kinetic activity. Female rats fasted for 17 hours were used for the test.

[15] = system: mice; test: Rota-rod test; format: in vivo, mouse; conditions: 100 mg/Kg, versus untreated mice, FIG. 8A
Source text: Motor performance can be tested by measuring the length of time an animal can remain on a slowly rotating cylinder, as in the rota-rod test.

Structure (SMILES): CCC1(c2ccccc2)C(=O)NC(=O)NC1=O [luminal sodium]
- protection against convulsions ([1]; 20 mg/kg orally): 100%
- animals manifesting convulsions ([2]; 10 mg/kg i.p.): None
- tonic and clonic convulsions in response to electric shock ([3]; luminal sodium 10 mg/Kg i.p.): completely blocked

Structure (SMILES): NCCCC(=O)O [GABA]
- protection against convulsions ([1]; high dose 200 mg/kg orally): 20%
- protection against convulsions ([1]; low dose 100 mg/kg orally): 10%
- anticonvulsant effect ([2]; 50 or 100 mg/kg i.p. (either dose), pentetrazol 80 mg/kg i.p.): no anticonvulsant effect

Structure (SMILES): Cc1ccccc1OCC(O)CO (stereo not drawn) [mephenesine]
- type of antagonism of strychnine from slope of dose/mortality line ([4]; mice): competitive antagonism
- effect on LD50 of strychnine ([4]; mouse, in vivo): raised the LD50 of strychnine

Structure (SMILES): CC(C)(C)C(=O)NCCCC(=O)O [pivagabine, 4-[(2,2-dimethyl-1-oxopropyl)amino]butanoic acid]
- effect on CRH concentration in the cerebral cortex ([5]; pivagabine alone (no foot shock), cerebral cortex): no effect
- reduction of CRH concentration in the hypothalamus ([5]; pivagabine alone (no foot shock), hypothalamus): 52%
- effects of foot-shock stress on CRH concentration ([5]; subchronic treatment, hypothalamus and cerebral cortex, FIGS. 12A and 12B): prevented the effects of foot-shock stress
- animals showing convulsions ([1]; 100 mg/kg orally): 4/10
- animals showing convulsions ([1]; 200 mg/kg orally): 1/10
- protection against convulsions ([1]; high dose 200 mg/kg orally): 90%
- binding to GABA receptors [6]: does not appear to bind to GABA receptors
- abundance of CRH mRNA [7]: increases the abundance of CRH mRNA
- anti-depressive and anxiolytic activity [8]: a certain anti-depressive and anxiolytic activity
- performance in later sessions ([9]; days 4 and 5): tended to be superior to that of controls
- time to exit and number of errors made ([9]; rats): performed as well as the control group
- number of resting positions adopted ([10]; FIG. 9B): significantly less
- time taken to traverse the thread ([10]; versus control mice, FIG. 9A): significantly faster
- LD50 [11]: 1750 mg/kg
- number of rearing movements ([12]; 50 and 100 mg/Kg i.p., FIG. 6B): significantly reduced
- ambulation, number of sectors explored per unit time ([12]; FIG. 6A): significant decrease
- defecation, number of fecal boluses produced ([12]; FIG. 6C): significant decrease
- dose up to which no toxic effects were observed [13]: 1000 mg/kg
- animals manifesting convulsions ([2]; 100 mg/kg i.p., p<0.01, FIG. 3): 30%
- effect on LD50 of strychnine ([4]; 100 mg/Kg i.p. 30 minutes prior to strychnine i.p., mice, FIG. 2): raised the LD50 of strychnine
- type of antagonism of strychnine from slope of dose/mortality line ([4]; mice): nonspecific antagonism
- protection against seizures ([14]; highest dose (oral doses 25-50-100-200 mg/Kg), FIG. 5): 90%
- anticonvulsive effect, dose-effect relationship ([14]; oral 25-50-100-200 mg/Kg): dose-related increase
- number of tonic convulsions in response to electric shock ([3]; 100 or 200 mg/Kg i.p., FIG. 1): significantly reduced
- time remaining on the rotating cylinder [15]: significantly longer
